Data from PubChem BioAssay (NCI).
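Test compounds were applied to cells in 96-well plates for 48 hours at 5 doses. GI50 marks 50% less growth. TGI: concentration producing complete growth inhibition.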

How the values were obtained:
Test in all cases: NCI-60 cell line screen, 48 h
M14 melanoma = test system: M14 melanoma
MDA-MB-435 = test system: MDA-MB-435
SW-620 colon = test system: SW-620 colon
SNB-19 CNS = test system: SNB-19 CNS
U251 CNS = test system: U251 CNS
NCI-H522 lung = test system: NCI-H522 lung
RXF 393 renal = test system: RXF 393 renal
TK-10 renal = test system: TK-10 renal
BT-549 breast = test system: BT-549 breast
SF-539 CNS = test system: SF-539 CNS
OVCAR-3 ovarian = test system: OVCAR-3 ovarian
A498 renal = test system: A498 renal
NCI-H23 lung = test system: NCI-H23 lung
SK-MEL-5 melanoma = test system: SK-MEL-5 melanoma
HCT-15 colon = test system: HCT-15 colon
MDA-MB-231 breast = test system: MDA-MB-231 breast
OVCAR-5 ovarian = test system: OVCAR-5 ovarian
LOX IMVI melanoma = test system: LOX IMVI melanoma
HL-60(TB) leukemia = test system: HL-60(TB) leukemia
HCT-116 colon = test system: HCT-116 colon
HCC-2998 colon = test system: HCC-2998 colon
NCI-H226 lung = test system: NCI-H226 lung
HT29 colon = test system: HT29 colon
786-0 renal = test system: 786-0 renal
MOLT-4 leukemia = test system: MOLT-4 leukemia
A549 NSCLC = test system: A549 NSCLC
SK-OV-3 ovarian = test system: SK-OV-3 ovarian
DU-145 prostate = test system: DU-145 prostate
MCF7 breast = test system: MCF7 breast
PC-3 prostate = test system: PC-3 prostate
HOP-92 NSCLC = test system: HOP-92 NSCLC
UO-31 renal = test system: UO-31 renal
SN12C renal = test system: SN12C renal
IGROV1 ovarian = test system: IGROV1 ovarian
NCI-H460 lung = test system: NCI-H460 lung
COLO 205 colon = test system: COLO 205 colon
K-562 leukemia = test system: K-562 leukemia
SK-MEL-28 melanoma = test system: SK-MEL-28 melanoma
OVCAR-8 ovarian = test system: OVCAR-8 ovarian
HS 578T breast = test system: HS 578T breast
SF-268 CNS = test system: SF-268 CNS
UACC-62 melanoma = test system: UACC-62 melanoma
CCRF-CEM leukemia = test system: CCRF-CEM leukemia
T-47D breast = test system: T-47D breast
UACC-257 melanoma = test system: UACC-257 melanoma
KM12 colon = test system: KM12 colon
SK-MEL-2 melanoma = test system: SK-MEL-2 melanoma
SF-295 CNS = test system: SF-295 CNS
EKVX NSCLC = test system: EKVX NSCLC
ACHN renal = test system: ACHN renal
SNB-75 CNS = test system: SNB-75 CNS
NCI/ADR-RES ovarian = test system: NCI/ADR-RES ovarian
MALME-3M melanoma = test system: MALME-3M melanoma
OVCAR-4 ovarian = test system: OVCAR-4 ovarian
HOP-62 NSCLC = test system: HOP-62 NSCLC
RPMI-8226 leukemia = test system: RPMI-8226 leukemia
CAKI-1 renal = test system: CAKI-1 renal

SMILES: CC(=O)c1cc2c(c(O)c1C)C(=O)C(=O)c1c(O)cccc1-2
- GI50 (M14 melanoma): 60.5 nM
- TGI (M14 melanoma): 121 nM
- GI50 (MDA-MB-435): 56.3 nM
- TGI (MDA-MB-435): 107 nM
- GI50 (SW-620 colon): 120 nM
- TGI (SW-620 colon): 387 nM
- GI50 (SNB-19 CNS): 163 nM
- TGI (SNB-19 CNS): 345 nM
- GI50 (U251 CNS): 247 nM
- TGI (U251 CNS): 659 nM
- GI50 (NCI-H522 lung): 281 nM
- TGI (NCI-H522 lung): 888 nM
- GI50 (RXF 393 renal): 157 nM
- TGI (RXF 393 renal): 416 nM
- GI50 (TK-10 renal): 560 nM
- TGI (TK-10 renal): 1010 nM
- GI50 (BT-549 breast): 140 nM
- TGI (BT-549 breast): 274 nM
- GI50 (SF-539 CNS): 150 nM
- TGI (SF-539 CNS): 285 nM
- GI50 (OVCAR-3 ovarian): 76.8 nM
- TGI (OVCAR-3 ovarian): 280 nM
- GI50 (A498 renal): 962 nM
- TGI (A498 renal): 2380 nM
- GI50 (NCI-H23 lung): 66.6 nM
- TGI (NCI-H23 lung): 154 nM
- GI50 (SK-MEL-5 melanoma): 56.5 nM
- TGI (SK-MEL-5 melanoma): 105 nM
- GI50 (HCT-15 colon): 113 nM
- TGI (HCT-15 colon): 302 nM
- GI50 (MDA-MB-231 breast): 277 nM
- TGI (MDA-MB-231 breast): 2260 nM
- GI50 (OVCAR-5 ovarian): 526 nM
- TGI (OVCAR-5 ovarian): 1010 nM
- GI50 (LOX IMVI melanoma): 53.9 nM
- TGI (LOX IMVI melanoma): 101 nM
- GI50 (HL-60(TB) leukemia): 89.5 nM
- TGI (HL-60(TB) leukemia): 271 nM
- GI50 (HCT-116 colon): 216 nM
- TGI (HCT-116 colon): 506 nM
- GI50 (HCC-2998 colon): 330 nM
- TGI (HCC-2998 colon): 776 nM
- GI50 (NCI-H226 lung): 554 nM
- TGI (NCI-H226 lung): 1050 nM
- GI50 (HT29 colon): 319 nM
- TGI (HT29 colon): 1490 nM
- GI50 (786-0 renal): 421 nM
- TGI (786-0 renal): 897 nM
- GI50 (MOLT-4 leukemia): 348 nM
- TGI (MOLT-4 leukemia): 1440 nM
- GI50 (A549 NSCLC): 565 nM
- TGI (A549 NSCLC): 1240 nM
- GI50 (SK-OV-3 ovarian): 565 nM
- TGI (SK-OV-3 ovarian): 1120 nM
- GI50 (DU-145 prostate): 56.8 nM
- TGI (DU-145 prostate): 102 nM
- GI50 (MCF7 breast): 57.6 nM
- TGI (MCF7 breast): 134 nM
- GI50 (PC-3 prostate): 510 nM
- TGI (PC-3 prostate): 2030 nM
- GI50 (HOP-92 NSCLC): 906 nM
- TGI (HOP-92 NSCLC): 1880 nM
- GI50 (UO-31 renal): 247 nM
- TGI (UO-31 renal): 742 nM
- GI50 (SN12C renal): 59.2 nM
- TGI (SN12C renal): 117 nM
- GI50 (IGROV1 ovarian): 521 nM
- TGI (IGROV1 ovarian): 1340 nM
- GI50 (NCI-H460 lung): 460 nM
- TGI (NCI-H460 lung): 1090 nM
- GI50 (COLO 205 colon): 342 nM
- TGI (COLO 205 colon): 872 nM
- GI50 (K-562 leukemia): 281 nM
- TGI (K-562 leukemia): 1050 nM
- GI50 (SK-MEL-28 melanoma): 163 nM
- TGI (SK-MEL-28 melanoma): 365 nM
- GI50 (OVCAR-8 ovarian): 308 nM
- TGI (OVCAR-8 ovarian): 936 nM
- GI50 (HS 578T breast): 248 nM
- TGI (HS 578T breast): 1300 nM
- GI50 (SF-268 CNS): 133 nM
- TGI (SF-268 CNS): 471 nM
- GI50 (UACC-62 melanoma): 164 nM
- TGI (UACC-62 melanoma): 354 nM
- GI50 (CCRF-CEM leukemia): 460 nM
- TGI (CCRF-CEM leukemia): > 100000 nM
- GI50 (T-47D breast): 554 nM
- TGI (T-47D breast): 3170 nM
- GI50 (UACC-257 melanoma): 188 nM
- TGI (UACC-257 melanoma): 366 nM
- GI50 (KM12 colon): 411 nM
- TGI (KM12 colon): 1740 nM
- GI50 (SK-MEL-2 melanoma): 272 nM
- TGI (SK-MEL-2 melanoma): 922 nM
- GI50 (SF-295 CNS): 290 nM
- TGI (SF-295 CNS): 763 nM
- GI50 (EKVX NSCLC): 673 nM
- TGI (EKVX NSCLC): 3360 nM
- GI50 (ACHN renal): 289 nM
- TGI (ACHN renal): 1120 nM
- GI50 (SNB-75 CNS): 153 nM
- TGI (SNB-75 CNS): 301 nM
- GI50 (NCI/ADR-RES ovarian): 360 nM
- TGI (NCI/ADR-RES ovarian): 1390 nM
- GI50 (MALME-3M melanoma): 65.4 nM
- TGI (MALME-3M melanoma): 139 nM
- GI50 (OVCAR-4 ovarian): 199 nM
- TGI (OVCAR-4 ovarian): 636 nM
- GI50 (HOP-62 NSCLC): 175 nM
- TGI (HOP-62 NSCLC): 365 nM
- GI50 (RPMI-8226 leukemia): 615 nM
- TGI (RPMI-8226 leukemia): 1900 nM

SMILES: Cc1cccc(C)c1NC(=O)/C(Cc1nc2ccc([N+](=O)[O-])cc2[nH]c1=O)=N\NC(N)=O
- TGI (M14 melanoma): > 100000 nM
- TGI (MDA-MB-435): > 100000 nM
- TGI (SW-620 colon): > 100000 nM
- TGI (CAKI-1 renal): > 100000 nM
- TGI (SNB-19 CNS): > 100000 nM
- TGI (U251 CNS): > 100000 nM
- TGI (NCI-H522 lung): > 100000 nM
- TGI (TK-10 renal): > 100000 nM
- TGI (BT-549 breast): > 100000 nM
- TGI (SF-539 CNS): > 100000 nM
- TGI (OVCAR-3 ovarian): > 100000 nM
- TGI (A498 renal): > 100000 nM
- TGI (NCI-H23 lung): > 100000 nM
- TGI (SK-MEL-5 melanoma): > 100000 nM
- TGI (HCT-15 colon): > 100000 nM
- TGI (MDA-MB-231 breast): > 100000 nM
- TGI (OVCAR-5 ovarian): > 100000 nM
- TGI (LOX IMVI melanoma): > 100000 nM
- TGI (HL-60(TB) leukemia): > 100000 nM
- TGI (HCT-116 colon): > 100000 nM
- TGI (HCC-2998 colon): > 100000 nM
- TGI (NCI-H226 lung): > 100000 nM
- TGI (HT29 colon): > 100000 nM
- TGI (786-0 renal): > 100000 nM
- TGI (MOLT-4 leukemia): > 100000 nM
- TGI (A549 NSCLC): > 100000 nM
- TGI (SK-OV-3 ovarian): > 100000 nM
- TGI (DU-145 prostate): > 100000 nM
- TGI (MCF7 breast): > 100000 nM
- TGI (PC-3 prostate): > 100000 nM
- TGI (HOP-92 NSCLC): > 100000 nM
- TGI (UO-31 renal): > 100000 nM
- TGI (SN12C renal): > 100000 nM
- TGI (IGROV1 ovarian): > 100000 nM
- TGI (NCI-H460 lung): > 100000 nM
- TGI (COLO 205 colon): > 100000 nM
- TGI (K-562 leukemia): > 100000 nM
- TGI (SK-MEL-28 melanoma): > 100000 nM
- TGI (OVCAR-8 ovarian): > 100000 nM
- TGI (HS 578T breast): > 100000 nM
- TGI (SF-268 CNS): > 100000 nM
- TGI (UACC-62 melanoma): > 100000 nM
- TGI (CCRF-CEM leukemia): > 100000 nM
- TGI (T-47D breast): > 100000 nM
- TGI (UACC-257 melanoma): > 100000 nM
- TGI (KM12 colon): > 100000 nM
- TGI (SK-MEL-2 melanoma): > 100000 nM
- TGI (SF-295 CNS): > 100000 nM
- TGI (EKVX NSCLC): > 100000 nM
- TGI (ACHN renal): > 100000 nM
- TGI (SNB-75 CNS): > 100000 nM
- TGI (NCI/ADR-RES ovarian): > 100000 nM
- TGI (MALME-3M melanoma): > 100000 nM
- TGI (OVCAR-4 ovarian): > 100000 nM
- TGI (RPMI-8226 leukemia): > 100000 nM
